# Measurements: paper PMC6254971, “Antimalarial Activity of Ultra-Short Peptides” (Molecules, 2009)
# Where two headings read alike, the source gives them in different places. Non-standard residues stand in square brackets, D forms with d. Residues, ends and D or L forms follow the SMILES beside them. No end group written: not given here. *: point of attachment. Orn = NCCC[C@H](N)C(=O)O; Cbz = O=C(OCc1ccccc1)*; CH2F = FC*
# Columns and labels:
# P. falciparum = test system: P. falciparum; parameters: method as in 6 sources, ref 23 = [23]; PMID 16723585; doi:10.1128/AAC.00022-06; 23. Parikh S. Liu J. Sijwali P. Gut J. Goldberg D.E. Rosenthal P.J. Antimalarial effects of human immunodeficiency virus type 1 protease inhibitors differ from those of the aspartic protease inhibitor ||| ref 24 = [24]; PMID 11172676; doi:10.2174/0929867013373787; 24. Meinke P.T. Liberator P. Histone deacetylase: A target for antiproliferative and antiprotozoal agents Current Med. Chem. 2001 8 211 235 10.2174/0929867013373787 11172676 ||| ref 12 = [12]; PMID 16643062; doi:10.1021/np050549h; 12. Thongtan J. Saenboonrueng J. Rachtawee P. Isaka M. An antimalarial tetrapeptide from the entomopathogenic fungus Hirsutella sp. BCC 1528 J. Nat. Prod. 2006 69 713 714 10.1021/np050549h 16643062 ||| ref 25 = [25]; PMID 18305429; doi:10.3390/molecules13020432; 25. Sathe M. Thavaselvam D. Srivastava A.K. Kaushik M.P. Synthesis and antimalarial evaluation of cyclic β-amino acid-containing dipeptides Molecules 2008 13 432 443 10.3390/molecules13020432 18305429 ||| ref 30, 31 = [30]; PMID 1939639; doi:10.1172/JCI115456; 30. Rosenthal P.J. Wollish W.S. Palmer J.T. Rasnick D. Antimalarial effects of peptide inhibitors of a Plasmodium falciparum cysteine proteinase J. Clin. Invest. 1991 88 1467 1472 10.1172/JCI115456 19 || [31]; PMID 8807047; doi:10.1128/aac.40.7.1600; 31. Rosenthal P.J. Olson J.E. Lee G.K. Palmer J.T. Klaus J.L. Rasnick D. Antimalarial effects of vinyl sulfone cysteine proteinase inhibitors Antimicrob. Agents Chemother. 1996 40 1600 1603 8807047 10 ||| ...; settings: cited from earlier work; for IC50: read-out: IC50 against P. falciparum; for IC50 in vitro: maturation schizonts and total growth inhibition assays
# P. berghei = test system: P. berghei; parameters: method as in 2 sources, ref 29 = [29]; PMID 8917558; doi:10.1073/pnas.93.23.13143; 29. Darkin-Rattray S.J. Gurnett A.M. Myers R.W. Dulski P.M. Crumley T.M. Allocco J.J. Cannova C. Meinke P.T. Colletti S.L. Bednarek M.A. Singh S.B. Goetz M.A. Dombrowski A.W. Polishook J.D. Schmatz D. ||| ref 25 = [25]; PMID 18305429; doi:10.3390/molecules13020432; 25. Sathe M. Thavaselvam D. Srivastava A.K. Kaushik M.P. Synthesis and antimalarial evaluation of cyclic β-amino acid-containing dipeptides Molecules 2008 13 432 443 10.3390/molecules13020432 18305429; settings: cited from earlier work
# [1] = test system: Plasmodium berghei schizonts (ANKA 2.34), chloroquine-sensitive; assay: microbe, parasite or virus in culture; settings: for Chemosuppression of P. berghei schizont cultures (%): compound 200 μM, schizonts counted in 2,000 erythrocytes
# Method: Mature P. berghei schizonts were prepared as described by Thathy and Menard. […] Parasites were incubated for 16 h at 37 °C as described. Chloroquine (C6628 Sigma Chloroquine diphosphate salt solid, ≥98% purity) was used as positive control. Samples of 0.5 mL of each culture were taken to prepare smears and used to count numbers of schizonts in 2,000 erythrocytes. The IC50 values of each compound were determined using concentrations of 5, 50, 100, and 200 µM, according to Khalid et al., and by extrapolation from the concentration response curve. The IC50 value represents the drug concentration producing a 50% reduction in the number of P. berghei schizonts (compared to drug-free control cultures).
# malarial infected mice = settings: four days of subcutaneous administration; cited from earlier work
# [2] = test system: trophozoite cysteine proteinase (TCP); parameters: method as in PMID 1939639, PMID 8807047; settings: cited from earlier work
# [3] = read-out: IC50 (50% reduction in the number of P. berghei schizonts), 16 h at 37 °C, concentrations 5, 50, 100, 200 µM, extrapolation from concentration response curve, duplicate, averaged
# [4] = 16 h at 37 °C, duplicate, averaged
molecule,measurement,setting,value
apicidin A,MIC against P. falciparum,P. falciparum,0.125 µg/mL
pepstatin A,IC50,P. falciparum,7.5 µM
2-(2-tert-butoxycarbonylamino-3-phenyl-propionylamino)-cyclooctanecarboxylic acid methyl ester,in vivo antimalarial activity against P. berghei,P. berghei,active in vivo
same,IC50 in vitro,P. falciparum,3.64 µg/mL
"CC[C@H](C)[C@H](N)C(=O)N[C@@H](CCCCN)C(=O)N[C@@H](Cc1ccccc1)C(=O)N[C@@H](CCCN)C(=O)O [Compound 1, Ile-Lys-Phe-Orn] (H-IKF[Orn]-OH)",IC50,[1]; 16 h,32.4 µM
hirsutellic A acid,IC50,P. falciparum,8 µM
"NCCCC[C@H](N)C(=O)N[C@@H](CCCN)C(=O)N[C@@H](Cc1ccccc1)C(=O)N[C@@H](CCCN)C(=O)O [Compound 3, Lys-Orn-Phe-Orn] (H-K[Orn]F[Orn]-OH)",IC50,[1]; 16 h,13.5 µM
2-(2-tert-butoxycarbonylamino-4-methylpentanoyl-amino)-cyclooctanecarboxylic acid methyl ester,IC50 in vitro,P. falciparum,3.87 µg/mL
"CC(C)[C@H](NC(=O)[C@@H](N)CCCCN)C(=O)N[C@@H](Cc1ccccc1)C(=O)N1CCC[C@H]1C(=O)O [Compound 8, Lys-Val-Phe-Pro] (H-KVFP-OH)",IC50,[1]; [3],51.3 µM
"CC(C)[C@H](NC(=O)[C@H](CCCN)NC(=O)[C@@H](N)Cc1ccccc1)C(=O)O [Compound 9, Phe-Orn-Val] (H-Phe-[Orn]-Val-OH)",IC50,[1]; 16 h,120 µM
"NCCCC[C@H](N)C(=O)N[C@@H](Cc1ccccc1)C(=O)N[C@@H](Cc1ccccc1)C(=O)N[C@@H](CCCN)C(=O)O [Compound 5, Lys-Phe-Phe-Orn] (H-KFF[Orn]-OH)",IC50,[1]; 16 h,2.57 µM
"CC(C)[C@H](N)C(=O)N[C@@H](CCCCN)C(=O)N[C@@H](Cc1ccccc1)C(=O)N[C@@H](CCCN)C(=O)O [Compound 2, Val-Lys-Phe-Orn] (H-VKF[Orn]-OH)",IC50,[1]; 16 h,10 µM
"CC(C)[C@H](NC(=O)[C@@H](N)CCCCN)C(=O)N1CCC[C@H]1C(=O)N[C@@H](CCCN)C(=O)O [Compound 7, Lys-Val-Pro-Orn] (H-KVP[Orn]-OH; N-terminus assumed)",IC50,[1]; 16 h,> 200 µM
same,Chemosuppression of P. berghei schizont cultures (%),[1]; [4],27.39%
COC(=O)N[C@H](C(=O)N[C@@H](Cc1ccccc1)[C@@H](O)CN(Cc1ccc(-c2ccccn2)cc1)NC(=O)[C@@H](NC(=O)OC)C(C)(C)C)C(C)(C)C [atazanavir],inhibition of P. falciparum in vitro,P. falciparum,inhibit P. falciparum in vitro
apicidin,in vivo antimalarial activity against P. berghei,P. berghei,potent in vivo antimalarial agent
same,MIC against P. falciparum,P. falciparum,0.125 µg/mL
morpholine urea (Mu)-Phe-HPh-CH2F,cured malarial infected mice,malarial infected mice,80%
Cbz-Phe-Arg-CH2F [peptidylfluoromethyl ketone],inhibition of trophozoite cysteine proteinase,[2],very potent inhibitor
F[Orn]F[Orn] [Compound 4],Chemosuppression of P. berghei schizont cultures (%),[1]; [4],85.94%
same,IC50,[1]; [3],3.31 µM
CCN(CC)CCCC(C)Nc1ccnc2cc(Cl)ccc12 (stereo not shown) [Chloroquine],IC50,"[1]; Plasmodium berghei, 16 h, read-out: IC50 (50% reduction in the number of P. berghei schizonts)",0.06 µM
same,Chemosuppression of P. berghei schizont cultures (%),[1]; [4],100%
CC(C)(C)NC(=O)[C@@H]1C[C@@H]2CCCC[C@@H]2CN1C[C@@H](O)[C@H](Cc1ccccc1)NC(=O)[C@H](CC(N)=O)NC(=O)c1ccc2ccccc2n1 [saquinavir],inhibition of P. falciparum in vitro,P. falciparum,inhibit P. falciparum in vitro
"CC(C)[C@H](NC(=O)[C@H](CCCCN)NC(=O)[C@H](Cc1ccccc1)NC(=O)[C@@H](N)CCCN)C(=O)O [Compound 6, Orn-Phe-Lys-Val] (H-[Orn]FKV-OH; N-terminus assumed)",IC50,[1]; 16 h,> 200 µM
same,Chemosuppression of P. berghei schizont cultures (%),[1]; [4],26.58%
same,antimalarial activity in words (P. berghei schizont cultures),"[1]; in vitro, 16 h",inactive
HC-toxin I,MIC against P. falciparum,P. falciparum,0.031 µg/mL
